Values joined by “and” are separate entries in the source; they are usually repeats but may differ in a detail not shown here. Identical values can stand only once.
How the values were obtained:
[1] = test system: B. subtilis; assay: Radial diffusion assay; type: cell-based, Bacillus subtilis (ATCC, 11774); conditions: 5 µl of 500 µM per 3 mm well, 37 °C, mean ± SD
Excerpt: (§1) The microbial strains used in this study were Bacillus subtilis (ATCC, 11774), Candida albicans (TIMM, 1768), Enterococcus faecalis (ATCC, 33186), Escherichia coli (ATCC, 11775), Klebsiella pneumoniae (ATCC, 13883), Methicillin-resistant Staphylococcus aureus (ATCC, BAA-41), Pseudomonas aeruginosa (ATCC, 10145), Salmonella enterica (ATCC, 14028), Serratia marcescens (ATCC, 13880), Staphylococcus aureus (ATCC, 25923) and Vibrio parahaemolyticus (ATCC, 17802). All microbial strains were cultivated overnight at 37 °C and 200 rpm, then subcultured and incubated for 3 h under the same incubation conditions to obtain the mid-logarithmic growth phase. The cultivated cells were washed twice with 10 mM Tris–HCl containing 5 mM D-glucose at pH 7.4 and suspended in the same buffer to be used in different assays, as previously described.
(§2) The antimicrobial activity spectra of the selected cryptides were screened against all the mentioned microbial pathogens, except V. parahaemolyticus, by radial diffusion assay as previously described, with slight modifications. […] The plates were then incubated for 18 h, and the antimicrobial activities were measured in the absolute unit (AU), as previously described. […]
(§3) plate. The plates were then incubated for 12 h at 37 °C and antimicrobial activities were measured in the term of absolute unit (A.U). […]

[2] = test system: E. faecalis; assay: Radial diffusion assay; type: cell-based, Enterococcus faecalis (ATCC, 33186); conditions: 5 µl of 500 µM per 3 mm well, 37 °C, mean ± SD
Excerpt: as §1, §2, §3

[3] = test system: E. coli K-1; assay: Radial diffusion assay; type: cell-based, Escherichia coli (ATCC, 11775); conditions: 5 µl of 500 µM per 3 mm well, 37 °C, mean ± SD
Excerpt: as §1, §2, §3

[4] = test system: S. enterica; assay: Radial diffusion assay; type: cell-based, Salmonella enterica (ATCC, 14028); conditions: 5 µl of 500 µM per 3 mm well, 37 °C, mean ± SD
Excerpt: as §1, §2, §3

[5] = test system: MRSA; assay: Radial diffusion assay; type: cell-based, Methicillin-resistant Staphylococcus aureus (ATCC, BAA-41); conditions: 5 µl of 500 µM per 3 mm well, 37 °C, mean ± SD
Excerpt: as §1, §2, §3

[6] = test system: S. marcescens; assay: Radial diffusion assay; type: cell-based, Serratia marcescens (ATCC, 13880); conditions: 5 µl of 500 µM per 3 mm well, 37 °C, mean ± SD
Excerpt: as §1, §2, §3

[7] = test system: S. epidermidis; assay: Radial diffusion assay; type: cell-based; conditions: 5 µl of 500 µM per 3 mm well, 37 °C, mean ± SD
Excerpt: The antimicrobial activity spectra of the selected cryptides were screened against all the mentioned microbial pathogens, except V. parahaemolyticus, by radial diffusion assay as previously described, with slight modifications. We aimed to test different categories of pathogens on the WHO global priority due to their growing resistance to the available antibiotics such as P. aeruginosa, E. coli and K. pneumoniae in the critical category and Salmonella ssp. and S. aureus in the high category. Briefly, a total of 4 × 10^6 CFU of each pathogen was inoculated in 10 mL of an underlay agarose gel [0.03% w/v tryptone soy broth (TSB) medium, 1% w/v agarose and 0.02% v/v Tween 20 in 10 mM Tris–HCl] that was then poured into a 100-mm petri dish. After agarose solidification, 3 mm-diameter wells were punched by a sterile cork borer and 5 µl of 500 µM stock solution from each cryptide was added to each well. Melittin and acidified water were used as positive and negative controls, respectively. […] The plates were then incubated for 18 h, and the antimicrobial activities were measured in the absolute unit (AU), as previously described. […]
as §3

[8] = test system: P. aeruginosa; assay: Radial diffusion assay; type: cell-based, Pseudomonas aeruginosa (ATCC, 10145); conditions: 5 µl of 500 µM per 3 mm well, 37 °C, mean ± SD
Excerpt: as §1, §2, §3

[9] = test system: V. parahaemolyticus; assay: Micro-broth dilution MIC / MBC; type: cell-based, Vibrio parahaemolyticus (ATCC, 17802); conditions: 37 °C
Excerpt: as §1
As a conclusive quantitative assessment, broth microtiter assay was used to determine the MIC values of each cryptide against B. subtilis, MRSA, S. enterica, P. aeruginosa, V. parahaemolyticus and C. albicans by following the guidelines of the Clinical and Laboratory Standards Institute (CLSI)[67], with slight modifications. […] MIC was detected as the lowest concentration of each cryptide that prevents the optically detectable microbial growth at OD = 600 nm.

[10] = test system: MRSA mature biofilm; assay: Antibiofilm microtiter plate assay (mature biofilm, crystal violet); type: cell-based, Methicillin-resistant Staphylococcus aureus (ATCC, BAA-41); conditions: absorbance 600 nm, mean ± SD
Description: The antibiofilm activities of the selected cryptides against S. enterica and MRSA mature biofilms were examined by microtiter plate assay as previously described, with slight modification. During the mid-logarithmic phase, S. enterica and MRSA were suspended at the density of 1.7 × 10^8 CFU/ml in MHB. Then 100 µl of each bacterial suspension was dispensed into a vinyl 96 U-shaped-well plate and incubated overnight at 37 °C. The mature biofilms were washed with 10 mM Tris–HCl containing 5 mM D-glucose at pH 7.4 and treated for 8 h with 100 µl of two-fold serially diluted cryptides, under the same incubation conditions. A sterile MHB medium was used as the positive control while an equivalent volume of acidified water was used to treat the negative controls. The treated biofilms were washed twice with the same washing buffer and stained with 0.1% crystal violet for 15 min followed by rinsing with sterile distilled water twice and then dried for 30 min at 37 °C. The stain was dissolved with 33% acetic acid and transferred to an optically clear 96-well flat bottom plate which was then measured at 600 nm.
Table S.4 Antibiofilm activities of the selected Cryptides against S. enterica and MRSA. Microbial cells were suspended at 1.7 X 10^8 CFU/ml density, during the mid-logarithmic phase in MHB. Then, 96 U-shaped -well plates were inoculated with 100 µl of microbial suspension and incubated for 48 h at 37 °C. The formed biofilms were washed with 10 mM Tris-HCl and treated with 100 µl of different concentrations of each peptide for 24 h. The treated biomasses were washed and fixed with methanol for 15 min at -20 °C before staining with 0.1 % crystal violet. The stained biofilms were dissolved in 100 µl of 33 % acetic acid and the quantities of crystal violet stains were determined by measuring absorbance at 600 nm as an indicator of the remaining biomass after treatment. Untreated cells were used as negative control [indicating 100 % biofilm integrity] while the sterile medium was used as a positive control [indicating 0 % biofilm integrity].
S. enterica MRSA S. enterica MRSA S. enterica MRSA S. enterica MRSA S. enterica MRSA

In the case of “RHCLRSKRPPNVCPH [AD4, cationic cryptide from P. vannamei precursor DN34505 (Pl-crustin 2), chemically synthesised]”, the “Antimicrobial activity (inhibition zone) B. subtilis” value [1] is reported as 13.8± 0.7 A.U, the “Antimicrobial activity (inhibition zone) E. faecalis” value [2] is reported as 14.7 ± 1.2 A.U and the “Antimicrobial activity (inhibition zone) E. coli K-1” value [3] is reported as 7.7 ± 1 A.U. The “Antimicrobial activity (inhibition zone) S. enterica” value [4] was 7.7 ± 1 A.U, the “Antimicrobial activity (inhibition zone) MRSA” value [5] was 12.2 ± 1.1 A.U and the “Antimicrobial activity (inhibition zone) S. marcescens” value [6] was 0 A.U. The “Antimicrobial activity (inhibition zone) S. epidermidis” value [7] was 9 ± 0 A.U, the “Antimicrobial activity (inhibition zone) P. aeruginosa” value [8] was 0 A.U and the “MBC (µM) V. parahaemolyticus” value ([9]; 20 µl of wells without growth on agar, 18 h) was > 50 µM. For the same sequence, the “MIC (µM) V. parahaemolyticus” value ([9]; micro-broth dilution, 3 h peptide treatment then MHB 18 h, OD 600 nm) was > 50 µM, the “Biofilm eradication MRSA, 12.5 µM” value [10] was 0% and the “Biofilm eradication MRSA, 25 µM” value [10] was 0.86 ± 3.1%. The “Biofilm eradication MRSA, 50 µM” value [10] was 11.53 ±1.4%, the “Biofilm eradication MRSA, 100 µM” value [10] was 27.05 ±1.3% and the “Biofilm eradication MRSA, 200 µM” value [10] was 35.86 ± 2.5% and 35.8%.
